Values of other authors as cited in US4127533A, “Novel octapeptides, intermediates therefor, and compositions and methods employing said octapeptides” (priority 1977, dated 1978).

Experiments:
[1] = test system: brain opiate receptor sites
rat = conditions: injected directly into the brain of the rat

H-Tyr-Gly-Gly-Phe-Met-OH [methionine enkephalin]
binding to partially purified brain opiate receptor sites [1]: binds stereo-specifically
analgesic activity (rat): only weak analgesic agent of short duration
